Reference: article PMC6001238, “Iterative Chemical Engineering of Vancomycin Leads to Novel Vancomycin Analogs With a High in Vitro Therapeutic Index” (Frontiers in Microbiology, 2018)
Values after ≈ are worked out from the molar mass of the structure shown.

How the values were obtained:
[1] = test system: E. faecalis VSE 1; assay: MIC, broth microdilution, vancomycin-sensitive E. faecalis (VSE 1); assay type: cell-based, Enterococcus faecalis; details: for MIC: Enterococcus faecalis VSE 1 (vancomycin-sensitive), read-out: MIC; for MIC-fold improvement vs. vancomycin: VSE 1, ratio of MIC of vancomycin and MIC of analogue
Summary of the method: (§1)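 Serial dilutions in broth, set up per CLSI guidance, gave the MIC. Where noted, test analogues or comparator antibiotics were combined with vancomycin at 10 μM final. Controls: ultrapure water, broth without inoculum.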

[2] = test system: E. faecalis VRE 6; assay: MIC, broth microdilution, vancomycin-resistant E. faecalis VRE 6 (VanA); assay type: cell-based, Enterococcus faecalis; details: for MIC: Enterococcus faecalis VRE 6 (vancomycin-resistant), read-out: MIC; for MIC-fold improvement vs. vancomycin: VRE 6, ratio of MIC of vancomycin and MIC of analogue
Summary of the method: as §1

[3] = test system: E. faecalis VRE 53; assay: MIC, broth microdilution, vancomycin-resistant E. faecalis VRE 53 (VanA); assay type: cell-based, Enterococcus faecalis; details: for MIC: Enterococcus faecalis VRE 53 (vancomycin-resistant), read-out: MIC; for MIC-fold improvement vs. vancomycin: VRE 53, ratio of MIC of vancomycin and MIC of analogue
Summary of the method: as §1

[4] = test system: E. faecalis VRE 29; assay: MIC, broth microdilution, vancomycin-resistant E. faecalis VRE 29 (VanA); assay type: cell-based, Enterococcus faecalis; details: for MIC: Enterococcus faecalis VRE 29 (vancomycin-resistant), read-out: MIC; for MIC-fold improvement vs. vancomycin: VRE 29, ratio of MIC of vancomycin and MIC of analogue
Summary of the method: as §1

[5] = test system: E. faecalis VRE 37; assay: MIC, broth microdilution, vancomycin-resistant E. faecalis VRE 37 (VanA); assay type: cell-based, Enterococcus faecalis; details: for MIC: Enterococcus faecalis VRE 37 (vancomycin-resistant), read-out: MIC; for MIC-fold improvement vs. vancomycin: VRE 37, ratio of MIC of vancomycin and MIC of analogue
Summary of the method: as §1

[6] = test system: Murine leukemia (L1210) cells; assay: Cytostatic activity, L1210 cell proliferation; assay type: cell-based; details: mean ± SD of three experiments; highest concentration tested 250 µM; 2 days; read-out: Toxicity (IC50) L1210
Summary of the method: (§2)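 Suspensions (300,000–500,000 cells/mL) combined with equal volumes of diluted compound; 37°C; L1210 2 d / CEM 3 d / HeLa 4 d; counted by Coulter counter; IC50 vs untreated wells.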

[7] = test system: human T-lymphocyte (CEM) cells; assay: Cytostatic activity, CEM cell proliferation; assay type: cell-based; details: mean ± SD of three experiments; highest concentration tested 250 µM; 3 days; read-out: Toxicity (IC50) CEM
Summary of the method: as §2

[8] = test system: human cervix carcinoma (HeLa) cells; assay: Cytostatic activity, HeLa cell proliferation; assay type: cell-based; details: mean ± SD of three experiments; highest concentration tested 250 µM; 4 days; read-out: Toxicity (IC50) HeLa
Summary of the method: as §2

[9] = test system: L1210, CEM and HeLa cell lines; assay: Cytostatic activity, average or summary over L1210, CEM and HeLa; assay type: cell-based; details: average of L1210, CEM and HeLa; read-out: Toxicity (IC50) Average
Summary of the method: as §2

[10] = test system: S. aureus VSSA (ATCC 6538); assay: MIC, broth microdilution, vancomycin-sensitive S. aureus (VSSA/MSSA, ATCC 6538); assay type: cell-based, Staphylococcus aureus; details: for MIC: Staphylococcus aureus VSSA, read-out: MIC; for MIC-fold improvement vs. vancomycin: VSSA, ratio of MIC of vancomycin and MIC of analogue
Summary of the method: as §1

[11] = test system: S. aureus VISA/HIP5827; assay: MIC, broth microdilution, vancomycin-intermediate S. aureus VISA HIP5827; assay type: cell-based, Staphylococcus aureus; details: for MIC: Staphylococcus aureus VISA/HIP5827, read-out: MIC; for MIC-fold improvement vs. vancomycin: VISA/HIP5827, ratio of MIC of vancomycin and MIC of analogue
Summary of the method: as §1

[12] = test system: S. aureus VRSA; assay: MIC, broth microdilution, vancomycin-resistant S. aureus (VRSA); assay type: cell-based, Staphylococcus aureus; details: for MIC: Staphylococcus aureus VRSA, read-out: MIC; for MIC-fold improvement vs. vancomycin: VRSA, ratio of MIC of vancomycin and MIC of analogue
Summary of the method: as §1

[13] = test system: MRSA KS2; assay: MIC, broth microdilution, MRSA KS2; assay type: cell-based, Staphylococcus aureus; details: for MIC-fold improvement vs. vancomycin: MRSA KS2, ratio of MIC of vancomycin and MIC of analogue; for MIC: Staphylococcus aureus MRSA KS2, read-out: MIC
Summary of the method: as §1

[14] = test system: MRSA KS6; assay: MIC, broth microdilution, MRSA KS6; assay type: cell-based, Staphylococcus aureus; details: for MIC-fold improvement vs. vancomycin: MRSA KS6, ratio of MIC of vancomycin and MIC of analogue; for MIC: Staphylococcus aureus MRSA KS6, read-out: MIC
Summary of the method: as §1

[15] = test system: MRSA KS89; assay: MIC, broth microdilution, MRSA KS89; assay type: cell-based, Staphylococcus aureus; details: for MIC-fold improvement vs. vancomycin: MRSA KS8, ratio of MIC of vancomycin and MIC of analogue; for MIC: Staphylococcus aureus MRSA KS8, read-out: MIC
Summary of the method: as §1

[16] = test system: MRSA KS1; assay: MIC, broth microdilution, MRSA KS1; assay type: cell-based, Staphylococcus aureus; details: for MIC-fold improvement vs. vancomycin: MRSA KS1, ratio of MIC of vancomycin and MIC of analogue; for MIC: Staphylococcus aureus MRSA KS1, read-out: MIC
Summary of the method: as §1

Row | Compound | MIC [1] [µM] | MIC-fold improvement vs. vancomycin [1] | MIC [2] [µM] | MIC-fold improvement vs. vancomycin [2] | MIC [3] [µM] | MIC-fold improvement vs. vancomycin [3] | MIC [4] [µM] | MIC-fold improvement vs. vancomycin [4] | MIC [5] [µM] | IC50 [6] [µM] | IC50 [7] [µM] | IC50 [8] [µM] | IC50 [9] [µM] | MIC [10] [µM] | MIC-fold improvement vs. vancomycin [10] | MIC [11] [µM] | MIC-fold improvement vs. vancomycin [11] | MIC [12] [µM] | MIC-fold improvement vs. vancomycin [12] | MIC-fold improvement vs. vancomycin [13] | further results
1 | CN[C@H](CC(C)C)C(=O)N[C@H]1C(=O)N[C@@H](CC(N)=O)C(=O)N[C@H]2C(=O)N[C@H]3C(=O)N[C@H](C(=O)N[C@H](C(=O)NCCNC(=O)/C=C/c4ccc(NS(=O)(=O)c5ccc(C)cc5)cc4)c4cc(O)cc(O)c4-c4cc3ccc4O)[C@H](O)c3ccc(c(Cl)c3)Oc3cc2cc(c3O[C@@H]2O[C@H](CO)[C@@H](O)[C@H](O)[C@H]2O[C@H]2C[C@](C)(N)[C@H](O)[C@H](C)O2)Oc2ccc(cc2Cl)[C@H]1O [Vanc-55] | 0.39 (≈ 0.698 µg/mL) | 4 | 6.25 (≈ 11.2 µg/mL) | 32 | 12.5 (≈ 22.4 µg/mL) | 32 | 12.5 (≈ 22.4 µg/mL) | 32 | 12.5 (≈ 22.4 µg/mL) | > 250 | ≥ 250 | 103 ± 10 | 201 | 0.78 (≈ 1.4 µg/mL) | 1 | 0.78 (≈ 1.4 µg/mL) | 8 | 0.39 (≈ 0.698 µg/mL) | 256 | 4 | MIC [13]: 0.20 µM (≈ 0.358 µg/mL); MIC-fold improvement vs. vancomycin [14]: 2; MIC [14]: 0.39 µM (≈ 0.698 µg/mL); MIC-fold improvement vs. vancomycin [15]: 2; MIC [15]: 0.39 µM (≈ 0.698 µg/mL); MIC-fold improvement vs. vancomycin [16]: 4; MIC [16]: 0.20 µM (≈ 0.358 µg/mL)
2 | CNC(CC(C)C)C(=O)NC1C(=O)NC(CC(N)=O)C(=O)NC2C(=O)NC3C(=O)NC(C(=O)NC(C(=O)NCC(=O)Nc4ccc(-c5ccc(Cl)cc5)cc4)c4cc(O)cc(O)c4-c4cc3ccc4O)C(O)c3ccc(c(Cl)c3)Oc3cc2cc(c3OC2OC(CO)C(O)C(O)C2OC2CC(C)(N)C(O)C(C)O2)Oc2ccc(cc2Cl)C1O (centres unmarked) [Vanc-84] | ≤0.05 | ≥32 | 0.78 (≈ 1.32 µg/mL) | 256 | 3.13 (≈ 5.3 µg/mL) | 128 | 0.78 (≈ 1.32 µg/mL) | 512 | 3.13 (≈ 5.3 µg/mL) | 1.5 ± 0.1 | 1.6 ± 0.9 | 13 | 5 | 0.10 (≈ 0.169 µg/mL) | 8 | 0.39 (≈ 0.66 µg/mL) | 16 | 0.78 (≈ 1.32 µg/mL) | 128 | 8 | MIC-fold improvement vs. vancomycin [5]: 128; MIC [13]: 0.10 µM (≈ 0.169 µg/mL); MIC-fold improvement vs. vancomycin [14]: 4; MIC [14]: 0.20 µM (≈ 0.338 µg/mL); MIC-fold improvement vs. vancomycin [15]: 4; MIC [15]: 0.20 µM (≈ 0.338 µg/mL); MIC-fold improvement vs. vancomycin [16]: 8; MIC [16]: 0.10 µM (≈ 0.169 µg/mL)
3 | CN[C@H](CC(C)C)C(=O)N[C@H]1C(=O)N[C@@H](CC(N)=O)C(=O)N[C@H]2C(=O)N[C@H]3C(=O)N[C@H](C(=O)N[C@H](C(=O)NCC(=O)Nc4ccc(-c5cn(-c6ccccc6)nn5)cc4)c4cc(O)cc(O)c4-c4cc3ccc4O)[C@H](O)c3ccc(c(Cl)c3)Oc3cc2cc(c3O[C@@H]2O[C@H](CO)[C@@H](O)[C@H](O)[C@H]2O[C@H]2C[C@](C)(N)[C@H](O)[C@H](C)O2)Oc2ccc(cc2Cl)[C@H]1O [Vanc-77] | 0.39 (≈ 0.673 µg/mL) | 4 | 1.56 (≈ 2.69 µg/mL) | 128 | 6.25 (≈ 10.8 µg/mL) | 64 | 6.25 (≈ 10.8 µg/mL) | 64 | 6.25 (≈ 10.8 µg/mL) | 192 ± 101 | 26 ± 1 | 58 ± 7 | 92 | 0.39 (≈ 0.673 µg/mL) | 2 | 0.78 (≈ 1.35 µg/mL) | 8 | 0.78 (≈ 1.35 µg/mL) | 128 | 4 | MIC-fold improvement vs. vancomycin [5]: 64; MIC [13]: 0.20 µM (≈ 0.345 µg/mL); MIC-fold improvement vs. vancomycin [14]: 4; MIC [14]: 0.20 µM (≈ 0.345 µg/mL); MIC-fold improvement vs. vancomycin [15]: 4; MIC [15]: 0.20 µM (≈ 0.345 µg/mL); MIC-fold improvement vs. vancomycin [16]: >8; MIC [16]: <0.10 µM
